Measured values taken from patent US20160106102A1, “KNOWN AND NEW HETEROCYCLIC COMPOUNDS AS PEST CONTROL AGENTS” (BAYER CROPSCIENCE AKTIENGESELLSCHAFT, priority 2013, published 2016).

Test system: Myzus persicae
Assay: Myzus persicae - sachet test
Type: in vivo
Conditions: application rate of 6 ppm in nutrient medium; 100% = all animals killed
Procedure: Myzus persicae—Sachet Test Solvent: 2% by vol. of N-methylpyrrolidone • 2% by vol. of diacetone alcohol To produce an appropriate active ingredient formulation, the active ingredient is mixed with the specified amounts of solvent and the concentrate is diluted to the desired concentration with water. The active ingredient formulation is added to a specific nutrient medium in the desired concentration by pipetting. This plate is sealed and combined with a further plate populated with the green peach aphid (Myzus persicae). After the desired time, the kill in % is determined. 100% means that all the animals have been killed; 0% means that no animals have been killed.

Row | Structure (SMILES) | efficacy (kill in %) [%]
1 | O=C(Nc1ccn(-c2ccc(F)cc2F)n1)c1cccnc1 [Compound I-1-85] | 100
2 | COC(=O)CCCn1nc(NC(=O)c2cccnc2)cc1C [Compound I-1-67] | 100

Same assay, conditions: application rate of 30 ppm in nutrient medium; 100% = all animals killed

Row | Structure (SMILES) | efficacy (kill in %) [%]
3 | O=C(Nc1ccn(-c2ccc(F)cc2F)n1)c1cccnc1 [Compound I-1-85] | 100
4 | COC(=O)CCCn1nc(NC(=O)c2cccnc2)cc1C [Compound I-1-67] | 100
5 | CCn1nnc(NC(=O)c2cccnc2)n1 [Compound I-4-1] | 100
6 | O=C(Nc1ccn(Cc2ccc(Cl)cc2Cl)n1)c1cccnc1 [Compound I-1-82] | 100
7 | CCOC(=O)Cn1ccc(NC(=O)c2cccnc2)n1 [Compound I-1-69] | 100

Test system: not listed separately
Assay: log P determination by LC-MS in the acidic range
Type: physicochemical
Conditions: LC-MS in the acidic range
Source text: The LC-MS determination in the acidic range is effected at pH 2.7 using 0.1% aqueous formic acid and acetonitrile (contains 0.1% formic acid) as eluents, linear gradient from 10% acetonitrile to 95% acetonitrile. Alternatively, the determination is effected in the acidic range at pH 2.3 using 0.1% aqueous phosphoric acid and acetonitrile as eluents; linear gradient from 10% acetonitrile to 95% acetonitrile.

Row | log P (acid) | Structure (SMILES)
8 | 1.73 | Cc1cc(NC(=O)c2ccnnc2)nn1Cn1ccc(C(F)(F)F)n1 [Compound I-1-255]
9 | 0.88 | Cc1ccnc(Cn2nc(NC(=O)c3ccnnc3)cc2C)n1 [Compound I-1-253]
10 | 1.67 | Cn1nc(NC(=O)c2cncc(F)c2)c(Br)c1OC(F)F [Compound I-1-113]
11 | 1.53 | CCOC(=O)Cn1nc(NC(=O)c2cncc(F)c2)cc1C [Compound I-1-59]
12 | 1.42 | N#Cc1ccccc1-n1ccc(NC(=O)c2cccnc2)n1 [Compound I-1-117]
13 | 0.91 | Cc1cc(NC(=O)c2ccnnc2)nn1Cn1cccn1 [Compound I-1-240]
14 | 2.48 | Cc1cc(NC(=O)c2ccc(Cl)nc2)nn1Cc1ccccc1 [Compound I-1-98]
15 | 2.71 | Cc1cc(NC(=O)c2cncc(Br)c2)nn1Cc1cccc(F)c1 [Compound I-1-107]
16 | 1.14 | Cc1cc(C)nc(Cn2nc(NC(=O)c3ccnnc3)cc2C)n1 [Compound I-1-251]
17 | 1.34 | COc1ccc(-n2nc(NC(=O)c3cccnc3)cc2C)cc1 [Compound I-1-200]
18 | 2.69 | Cc1cc(NC(=O)c2cncc(Br)c2)nn1Cc1ccccc1F [Compound I-1-101]
19 | 2.6 | Cc1cc(NC(=O)c2ccc(Cl)nc2)nn1Cc1cccc(F)c1 [Compound I-1-106]
20 | 1.07 | CCCNS(=O)(=O)n1nc(NC(=O)c2cccnc2)cc1C [Compound I-1-258]
21 | 0.92 | Cc1cc(NC(=O)c2ccnnc2)nn1Cn1nc(C)n(C2CC2)c1=O [Compound I-1-151]
22 | 1.2 | Cc1cc(NC(=O)c2ccnnc2)nn1CC(F)(F)F [Compound I-1-250]
23 | 1.33 | Cc1cc(NC(=O)c2ccnnc2)nn1Cc1ncccc1Cl [Compound I-1-254]
24 | 0.79 | CCOC(=O)c1cn(Cc2ccccc2)nc1NC(=O)c1cccnc1 [Compound I-1-272]
25 | 3.28 | Cc1cc(NC(=O)c2cnc(Cl)c(Cl)c2)nn1Cc1ccccc1F [Compound I-1-103]
26 | 2.47 | COc1ccc(C(=O)Nc2cc(C)n(Cc3ccc(F)cc3)n2)cn1 [Compound I-1-110]
27 | 1.53 | Cc1cc(C)nc(-n2nc(NC(=O)c3ccnnc3)cc2C)n1 [Compound I-1-248]
28 | 1.19 | Cn1nc(NC(=O)c2cccnc2)c(Cl)c1OC(F)F [Compound I-1-275]

Same assay, conditions: Table 2, compounds of the formula (I-2); acidic range pH 2.7 or pH 2.3

Row | log P (acid) | Structure (SMILES)
29 | 2.02 | O=C(Nc1ncn(-c2c(Cl)cc(S(=O)(=O)C(F)(F)F)cc2Cl)n1)c1cccnc1 [Compound I-2-3]
30 | 0.70 | COc1ccnc(-n2cnc(NC(=O)c3cccnc3)n2)n1 [Compound I-2-11]
31 | 1.11 | COc1cc(OC)nc(-n2cnc(NC(=O)c3cccnc3)n2)n1 [Compound I-2-24]
32 | 1.58 | O=C(Nc1nc(Cl)n(-c2ccccc2)n1)c1cccnc1 [Compound I-2-27]
33 | 1.23 | COc1nc(NC(=O)c2cccnc2)nn1-c1ccccc1 [Compound I-2-28]
34 | 1.36 | O=C(Nc1ncn(Cc2ccc(Cl)cc2)n1)c1cccnc1 [Compound I-2-13]
35 | 0.71 | CCn1nc(NC(=O)c2cccnc2)nc1SC [Compound I-2-12]
36 | 0.67 | O=C(Nc1ncn(-c2ncccc2Br)n1)c1cccnc1 [Compound I-2-15]

Same assay, conditions: Table 3; HPLC on reversed-phase column (C 18), 55° C., acidic range (pH 2.7 or pH 2.3)

Row | log P (acid) | Structure (SMILES)
37 | 2.97 | O=C(Nc1nn(-c2ccc(Cl)cc2Cl)nc1C(F)(F)F)c1cccnc1 [Compound I-3-8]
38 | 1.83 | O=C(Nc1cnn(-c2ncc(Cl)cc2Cl)n1)c1cccnc1 [Compound I-3-15]
39 | 2.43 | O=C(Nc1cnn(-c2ccc(Cl)cc2)n1)c1cccnc1 [Compound I-3-4]
40 | 2.26 | Cc1nn(-c2cc(Cl)ccc2Cl)nc1NC(=O)c1cccnc1 [Compound I-3-22]
41 | 1.74 | Cc1nn(-c2ncc(Cl)cc2Cl)nc1NC(=O)c1cccnc1 [Compound I-3-17]

Same assay, conditions: Table 4; HPLC on reversed-phase column (C 18), 55° C., acidic range (pH 2.7 or pH 2.3)

Row | log P (acid) | Structure (SMILES)
42 | 0.97 | CCCCNC(=O)Cn1nnc(NC(=O)c2cccnc2)n1 [Compound I-4-11]

Same assay, conditions: amines of the formula (II-1); acidic range pH 2.7 (0.1% formic acid/acetonitrile) or pH 2.3 (0.1% phosphoric acid/acetonitrile)

Row | log P (acid) | Structure (SMILES)
43 | 0.15 | CCOCn1nc(N)cc1C [II-1-33]
44 | 0.49 | Cc1cc(N)nn1CSc1ncccn1 [II-1-51]
45 | 0.56 | Nc1ccn(Cc2ccc(Cl)nc2)n1 [II-1-3]
46 | 0.98 | Cc1cc(N)nn1Cn1nc(C2CC2)n(C2CC2)c1=O [II-1-50]
47 | 1.26 | Cc1cc(N)nn1Cn1nccc1C(F)(F)F [II-1-41]
48 | <−0.23 | Cc1cc(N)nn1CN1CCCNC1=O [II-1-57]
49 | 0.22 | Cn1nc(N)cc1C(F)F [II-1-40]
50 | 0.43 | Cc1cc(N)nn1Cn1nc(C)n(C2CC2)c1=O [II-1-49]
51 | 0.44 | Cc1cc(N)nn1CN1CCS/C1=N/C#N [II-1-44]
52 | 0.77 | Cc1cc(N)nn1Cc1ccc(Cl)nc1 [II-1-5]
53 | −0.15 | C#CCn1nc(N)cc1C [II-1-20]
54 | 0.73 | CC(C)=CCn1nc(N)cc1C [II-1-59]
55 | 0.57 | CC(C)=NOCn1nc(N)cc1C [II-1-52]
56 | 0.55 | Cc1ccn(Cn2nc(N)cc2C)n1 [II-1-38]
57 | <−0.23 | Cc1cc(N)nn1Cn1c(C)nn(C)c1=O [II-1-54]
58 | <−0.23 | Cc1cc(N)nn1Cc1ncnn1C [II-1-63]
59 | 0.79 | Cc1cc(N)nn1-c1ncccc1Cl [II-1-31]
60 | 1.06 | Nc1cc(C(F)(F)F)n(Cc2ncccn2)n1 [II-1-35]
61 | 0.13 | Cc1cc(N)nn1CCCl [II-1-13]
62 | 0.42 | Cc1cc(C)nc(Cn2nc(N)cc2C)n1 [II-1-9]
63 | 0.63 | C#CCn1nc(N)cc1C1CC1 [II-1-4]
64 | −0.23 | Cc1cc(N)nn1Cn1cncn1 [II-1-43]
65 | 1.39 | Cc1cc(N)nn1Cc1cccc(OC(F)(F)F)c1 [II-1-11]
66 | 0.49 | Nc1cc(Cl)n(Cc2ncccn2)n1 [II-1-36]
67 | 0.14 | CSCn1nc(N)cc1C [II-1-60]
68 | 0.20 | N#Cc1cc(N)nn1Cc1ncccn1 [II-1-62]
69 | 0.21 | Cc1cc(N)nn1Cc1ncccc1C#N [II-1-25]
70 | 1.21 | Nc1cc(C2CC2)n(Cc2ccc(Cl)nc2)n1 [II-1-1]
71 | 0.03 | Cc1cc(N)nn1Cn1c(=O)n(C)c(=O)n1C [II-1-48]
72 | 0.52 | Cc1ccnn1Cn1nc(N)cc1C [II-1-39]

Same assay, conditions: pH 2.7, LC-MS in the acidic range; read-out: log P (acid)

Row | chromatographic logP | Structure (SMILES)
73 | 1.5 | COC(=O)c1cc(NC(=O)c2cncc(F)c2)nn1C [Compound I-1-134, Methyl 3-{[(5-fluoropyridin-3-yl)carbonyl]amino}-1-methyl-1H-pyrazole-5-carboxylate]
74 | 1.56 | Cn1nc(NC(=O)c2cncc(F)c2)cc1OC(F)F [Compound I-1-112, N-[5-(Difluoromethoxy)-1-methyl-1H-pyrazol-3-yl]-5-fluoronicotinamide]

Same assay, conditions: pH 2.7, amines of the formula (II-1); acidic range pH 2.7 (0.1% formic acid/acetonitrile) or pH 2.3 (0.1% phosphoric acid/acetonitrile); read-out: log P (acid)

Row | chromatographic logP | Structure (SMILES)
75 | 0.63 | CCSCn1nc(N)cc1C [II-1-61, 1-[(Ethylsulphanyl)methyl]-5-methyl-1H-pyrazole-3-amine]

Same assay, conditions: pH 2.7, values given in the synthesis examples and NMR lists; read-out: HPLC-MS: log P

Row | chromatographic logP | Structure (SMILES)
76 | 1.75 | Cc1cc(NC(=O)OC(C)(C)C)nn1Cc1ncccn1 [tert-Butyl[5-methyl-1-(pyrimidin-2-ylmethyl)-1H-pyrazol-3-yl]carbamate]
77 | 1.5 | COC(=O)c1cc(NC(=O)c2cncc(F)c2)nn1C [Compound I-1-134, Methyl 3-{[(5-fluoropyridin-3-yl)carbonyl]amino}-1-methyl-1H-pyrazole-5-carboxylate]
78 | 0.5 | Cc1cc(N)nn1-c1ncccn1 [5-Methyl-1-(pyrimidin-2-yl)-1H-pyrazole-3-amine]
79 | 1.56 | Cn1nc(NC(=O)c2cncc(F)c2)cc1OC(F)F [Compound I-1-112, N-[5-(Difluoromethoxy)-1-methyl-1H-pyrazol-3-yl]-5-fluoronicotinamide]
80 | 0.45 | Cc1cc(C(=O)O)nn1Cc1ncccn1 [5-Methyl-1-(pyrimidin-2-ylmethyl)-1H-pyrazole-3-carboxylic acid]
81 | 1.23 | Cc1cc(N)nn1C(=O)OC(C)(C)C [tert-Butyl 3-amino-5-methyl-1H-pyrazole-1-carboxylate]
82 | 0.63 | CCSCn1nc(N)cc1C [II-1-61, 1-[(Ethylsulphanyl)methyl]-5-methyl-1H-pyrazole-3-amine]
83 | 2.67 | O=[N+]([O-])c1ccn(Cc2ncc(C(F)(F)F)cc2Cl)n1 [3-Chloro-2-[(3-nitro-1H-pyrazol-1-yl)methyl]-5-(trifluoromethyl)pyridine]
84 | 2.21 | CCSCn1nc([N+](=O)[O-])cc1C [1-[(Ethylsulphanyl)methyl]-5-methyl-3-nitro-1H-pyrazole]
85 | -0.22 | Cc1cn(Cc2ncccn2)nc1N [4-Methyl-1-(pyrimidin-2-ylmethyl)-1H-pyrazole-3-amine]
